ChEMBL document CHEMBL1149697, “Identification of dissociated non-steroidal glucocorticoid receptor agonists” (Bioorg Med Chem Lett, 2007)

Columns and labels:
Glucocorticoid receptor = molecular target: T1, Glucocorticoid receptor (Homo sapiens, UniProt P04150)
T1 sequence (P04150 whole entry): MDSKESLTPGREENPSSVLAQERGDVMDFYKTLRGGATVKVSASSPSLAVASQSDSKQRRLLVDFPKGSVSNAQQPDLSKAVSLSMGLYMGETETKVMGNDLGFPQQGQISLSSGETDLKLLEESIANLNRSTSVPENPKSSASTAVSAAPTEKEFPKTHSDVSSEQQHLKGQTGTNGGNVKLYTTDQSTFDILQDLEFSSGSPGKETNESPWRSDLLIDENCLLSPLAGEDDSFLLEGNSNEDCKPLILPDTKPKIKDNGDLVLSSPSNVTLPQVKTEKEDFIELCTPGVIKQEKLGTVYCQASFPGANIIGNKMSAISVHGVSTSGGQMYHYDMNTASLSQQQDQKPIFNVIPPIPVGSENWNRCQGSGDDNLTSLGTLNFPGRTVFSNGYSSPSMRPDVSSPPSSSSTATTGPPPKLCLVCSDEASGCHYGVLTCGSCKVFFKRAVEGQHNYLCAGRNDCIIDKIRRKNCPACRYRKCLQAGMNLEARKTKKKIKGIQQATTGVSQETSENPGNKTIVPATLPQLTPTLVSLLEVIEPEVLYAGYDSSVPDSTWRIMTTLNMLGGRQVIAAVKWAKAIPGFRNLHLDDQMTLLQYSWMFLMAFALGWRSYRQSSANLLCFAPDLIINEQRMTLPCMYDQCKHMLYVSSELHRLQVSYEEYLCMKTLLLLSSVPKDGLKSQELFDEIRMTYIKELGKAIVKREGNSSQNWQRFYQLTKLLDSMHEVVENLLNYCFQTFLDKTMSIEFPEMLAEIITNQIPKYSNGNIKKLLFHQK

[1] = molecular target: T2, Mineralocorticoid receptor (Homo sapiens, UniProt P08235); assay: Displacement of TAMRA labeled dexamethasone at human mineralocorticoid receptor in insect cell
T2 sequence (P08235 whole entry): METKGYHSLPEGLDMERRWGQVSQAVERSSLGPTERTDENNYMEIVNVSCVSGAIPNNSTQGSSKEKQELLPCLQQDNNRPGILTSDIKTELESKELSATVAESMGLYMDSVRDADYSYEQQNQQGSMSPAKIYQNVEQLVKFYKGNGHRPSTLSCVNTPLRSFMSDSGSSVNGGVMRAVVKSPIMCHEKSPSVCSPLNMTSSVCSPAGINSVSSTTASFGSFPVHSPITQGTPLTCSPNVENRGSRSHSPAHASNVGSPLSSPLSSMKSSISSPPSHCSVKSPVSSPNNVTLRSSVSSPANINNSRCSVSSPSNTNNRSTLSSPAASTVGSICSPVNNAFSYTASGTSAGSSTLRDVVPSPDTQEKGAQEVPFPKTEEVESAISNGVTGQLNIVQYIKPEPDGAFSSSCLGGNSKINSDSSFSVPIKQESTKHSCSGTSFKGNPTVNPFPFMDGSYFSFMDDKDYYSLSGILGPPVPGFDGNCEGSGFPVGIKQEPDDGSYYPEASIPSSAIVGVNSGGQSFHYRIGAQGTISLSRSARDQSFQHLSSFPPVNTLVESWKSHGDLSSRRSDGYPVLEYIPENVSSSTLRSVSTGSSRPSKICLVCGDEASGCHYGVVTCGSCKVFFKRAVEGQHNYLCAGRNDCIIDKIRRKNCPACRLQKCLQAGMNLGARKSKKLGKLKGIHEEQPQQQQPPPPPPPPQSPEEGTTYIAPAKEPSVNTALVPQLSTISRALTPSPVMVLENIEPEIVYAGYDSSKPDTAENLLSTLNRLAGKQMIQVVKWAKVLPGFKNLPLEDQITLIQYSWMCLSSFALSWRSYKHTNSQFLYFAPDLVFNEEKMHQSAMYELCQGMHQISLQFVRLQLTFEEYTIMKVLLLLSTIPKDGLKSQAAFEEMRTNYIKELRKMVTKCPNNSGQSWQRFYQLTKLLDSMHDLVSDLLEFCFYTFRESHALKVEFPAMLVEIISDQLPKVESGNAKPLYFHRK

Progesterone receptor = molecular target: T3, Progesterone receptor (Homo sapiens, UniProt P06401); assay: Displacement of TAMRA labeled mifepristone at human progesterone receptor in insect cell
T3 sequence (P06401 whole entry): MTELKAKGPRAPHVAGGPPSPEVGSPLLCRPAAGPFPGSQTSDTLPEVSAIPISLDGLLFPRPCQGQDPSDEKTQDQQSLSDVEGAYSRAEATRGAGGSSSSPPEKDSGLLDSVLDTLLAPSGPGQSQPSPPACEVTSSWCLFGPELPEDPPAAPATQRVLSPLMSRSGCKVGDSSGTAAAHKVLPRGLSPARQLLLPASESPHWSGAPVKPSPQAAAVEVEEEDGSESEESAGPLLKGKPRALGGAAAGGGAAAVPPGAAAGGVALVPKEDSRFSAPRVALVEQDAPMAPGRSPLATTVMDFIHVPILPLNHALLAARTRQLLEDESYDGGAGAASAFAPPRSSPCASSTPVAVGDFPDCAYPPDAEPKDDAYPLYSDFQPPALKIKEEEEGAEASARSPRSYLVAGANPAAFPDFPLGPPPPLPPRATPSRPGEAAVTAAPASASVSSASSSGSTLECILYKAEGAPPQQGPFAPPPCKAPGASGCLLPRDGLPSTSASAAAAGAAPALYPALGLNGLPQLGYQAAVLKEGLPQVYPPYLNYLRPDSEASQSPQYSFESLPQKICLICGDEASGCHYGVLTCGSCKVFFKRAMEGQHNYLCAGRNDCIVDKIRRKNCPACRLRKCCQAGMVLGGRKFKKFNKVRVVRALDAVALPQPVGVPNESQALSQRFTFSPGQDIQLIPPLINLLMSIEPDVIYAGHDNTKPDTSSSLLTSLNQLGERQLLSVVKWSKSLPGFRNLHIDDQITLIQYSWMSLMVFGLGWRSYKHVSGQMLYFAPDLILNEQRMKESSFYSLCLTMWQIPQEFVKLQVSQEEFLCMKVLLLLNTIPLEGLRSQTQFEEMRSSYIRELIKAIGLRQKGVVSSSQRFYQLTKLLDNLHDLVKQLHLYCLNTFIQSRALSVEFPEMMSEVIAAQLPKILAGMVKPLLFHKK

HFF [2] = assay: Antiinflammatory activity assessed as upregulation of aromatase in HFF cells by transactivation assay; assay type: functional, cell-based; conditions: Homo sapiens
HFF [3] = assay: Antiinflammatory activity assessed as upregulation of aromatase in HFF cells by transactivation assay relative to dexamethasone; assay type: functional, Homo sapiens; design: concentration or dose not given beside the values
HFF [4] = assay: Antiinflammatory activity assessed as inhibition of IL1 stimulated IL6 production in HFF cells by transrepression assay; assay type: functional, cell-based; conditions: Homo sapiens
HFF [5] = assay: Antiinflammatory activity assessed as inhibition of IL6 production in HFF cells by transrepression assay relative to dexamethasone; assay type: functional, Homo sapiens

Compound | IC50 (Glucocorticoid receptor) | IC50 [1] | IC50 (Progesterone receptor) | EC50 (HFF [2]) | Activity (HFF [3]) | EC50 (HFF [4]) | Efficacy (HFF [5])
COc1ccc(F)cc1C(C)(C)CC(O)(Cc1ccc2ccccc2c1)C(F)(F)F (stereo not given) | 0.275 µM | > 2 µM | > 2 µM | – | – | – | –
COc1ccc(F)cc1C(C)(C)CC(O)(Cc1ccc(C#N)cc1)C(F)(F)F (stereo not given) | 0.03 µM | 0.51 µM | 0.345 µM | > 2 µM | 0% | > 2 µM | 0%
COc1ccc(F)cc1C(C)(C)CC(O)(Cc1cc(C)cc(C)c1)C(F)(F)F (stereo not given) | 0.055 µM | 0.22 µM | > 0.354 µM | 0.285 µM | 80% | 0.28 µM | 55%
COc1ccc(F)cc1C(C)(C)CC(O)(Cc1ccc(Cl)cc1Cl)C(F)(F)F (stereo not given) | 0.068 µM | 0.875 µM | 0.665 µM | – | – | – | –
COc1ccc(F)cc1C(C)(C)CC(O)(Cc1ccccc1Br)C(F)(F)F (stereo not given) | 0.205 µM | > 0.512 µM | > 0.512 µM | – | – | – | –
COc1ccc(F)cc1C(C)(C)CC(O)(Cc1ccc(Cl)cc1)C(F)(F)F (stereo not given) | 0.34 µM | 1.8 µM | > 2 µM | – | – | – | –
COc1ccc(F)cc1C(C)(C)CC(O)(Cc1ccc(C#N)cc1Cl)C(F)(F)F (stereo not given) | 0.017 µM | 0.32 µM | 0.14 µM | 0.03 µM | 20% | 0.02 µM | 60%
COc1ccc(F)cc1C(C)(C)CC(O)(Cc1cc(Cl)cc(Cl)c1)C(F)(F)F (stereo not given) | 0.06 µM | 0.76 µM | > 2 µM | – | – | – | –
COc1ccc(F)cc1C(C)(C)CC(O)(Cc1cc(Cl)ccc1Cl)C(F)(F)F (stereo not given) | 0.045 µM | 0.535 µM | > 2 µM | – | – | – | –
COc1ccc(F)cc1C(C)(C)CC(O)(Cc1ccccc1C)C(F)(F)F (stereo not given) | 0.855 µM | > 1.13 µM | > 1.13 µM | – | – | – | –
COc1ccc(F)cc1C(C)(C)CC(O)(Cc1ccc(C#N)cc1F)C(F)(F)F (stereo not given) | 0.022 µM | 0.5 µM | 0.28 µM | 0.66 µM | 15% | > 2 µM | 40%
COc1ccc(F)cc1C(C)(C)CC(O)(CCCc1ccccc1)C(F)(F)F (stereo not given) | 1.13 µM | > 0.74 µM | > 0.74 µM | – | – | – | –
COc1ccc(F)cc1C(C)(C)CC(O)(Cc1ccc(C#N)c2ccccc12)C(F)(F)F (stereo not given) | 0.021 µM | 0.43 µM | 0.325 µM | 0.26 µM | 103% | 0.07 µM | 92%
COc1ccc(F)cc1C(C)(C)CC(O)(Cc1cccc(Cl)c1)C(F)(F)F (stereo not given) | 0.55 µM | > 2 µM | > 2 µM | – | – | – | –
COc1ccc(F)cc1C(C)(C)CC(O)(Cc1ccc(C)c2ccccc12)C(F)(F)F (stereo not given) | 0.058 µM | 1.05 µM | 1.2 µM | – | – | > 2 µM | 9%
COc1ccc(F)cc1C(C)(C)CC(O)(CCc1ccccc1)C(F)(F)F (stereo not given) | > 1.3 µM | > 1.3 µM | > 1.3 µM | – | – | – | –
COc1ccc(F)cc1C(C)(C)CC(O)(Cc1cccc(C#N)c1)C(F)(F)F (stereo not given) | 0.081 µM | 0.4 µM | > 2 µM | – | – | – | –

Compound | IC50 (Glucocorticoid receptor) | IC50 [1] | IC50 (Progesterone receptor) | EC50 (HFF [2]) | Activity (HFF [3]) | EC50 (HFF [4]) | Efficacy (HFF [5])
COc1ccc(F)cc1C(C)(C)CC(O)(c1ccccc1)C(F)(F)F (stereo not given) | > 1.6 µM | 1.6 µM | > 1.6 µM | – | – | – | –
COc1ccc(F)cc1C(C)(C)CC(O)(C(=O)Nc1ccc2c(=O)onc(C)c2c1)C(F)(F)F (stereo not given) | – | – | – | > 2 µM | 0% | > 2 µM | 20%
COc1ccc(F)cc1C(C)(C)CC(O)(Cc1ccc(C=O)cc1Cl)C(F)(F)F (stereo not given) | 0.019 µM | 0.345 µM | 1.8 µM | – | – | – | –
COc1ccc(F)cc1C(C)(C)CC(O)(Cc1ccccc1Cl)C(F)(F)F (stereo not given) | 0.101 µM | 0.715 µM | > 2 µM | – | – | – | –
COc1ccc(F)cc1C(C)(C)CC(O)(Cc1ccccc1F)C(F)(F)F (stereo not given) | 0.37 µM | 1.35 µM | > 2 µM | – | – | – | –
COc1ccc(F)cc1C(C)(C)CC(O)(Cc1cc(Cl)cc(C#N)c1)C(F)(F)F (stereo not given) | 0.027 µM | 0.73 µM | > 2 µM | 4.75 µM | 53% | > 2 µM | 46%
C[C@@H]1C[C@H]2[C@@H]3CCC4=CC(=O)C=C[C@]4(C)[C@@]3(F)[C@@H](O)C[C@]2(C)[C@@]1(O)C(=O)CO [DEXAMETHASONE] | – | – | – | 0.002 µM | – | 0.0005 µM | –
COc1ccc(CC(O)(CC(C)(C)c2cc(F)ccc2OC)C(F)(F)F)cc1 (stereo not given) | 1.25 µM | > 1.42 µM | > 1.42 µM | – | – | – | –
COc1ccc(F)cc1C(C)(C)CC(O)(Cc1ccc(C=O)cc1)C(F)(F)F (stereo not given) | 0.02 µM | 0.65 µM | > 2 µM | – | – | – | –
COc1ccc(F)cc1C(C)(C)CC(O)(Cc1ccc(C)cc1)C(F)(F)F (stereo not given) | 0.945 µM | > 2 µM | > 2 µM | – | – | – | –
COc1ccc(F)cc1C(C)(C)CC(O)(Cc1c(Cl)cccc1Cl)C(F)(F)F (stereo not given) | 0.58 µM | 1.1 µM | > 2 µM | – | – | – | –
COc1ccc(F)cc1C(C)(C)CC(O)(Cc1c(C)ccc2ccccc12)C(F)(F)F (stereo not given) | 0.064 µM | 0.45 µM | > 2 µM | – | – | – | –
COc1ccc(F)cc1C(C)(C)CC(O)(Cc1cccc2ccccc12)C(F)(F)F (stereo not given) | 0.12 µM | 1.4 µM | > 2 µM | – | – | – | –
COc1ccc(F)cc1C(C)(C)CC(O)(Cc1cccc(Cl)c1Cl)C(F)(F)F (stereo not given) | 0.076 µM | 0.9 µM | 1.3 µM | – | – | – | –
COc1ccc(F)cc1C(C)(C)CC(O)(Cc1ccccc1)C(F)(F)F (stereo not given) | 0.61 µM | > 1.3 µM | > 1.3 µM | – | – | – | –
COc1ccc(F)cc1C(C)(C)CC(O)(Cc1cccc(C)c1)C(F)(F)F (stereo not given) | 0.58 µM | > 1.05 µM | > 1.05 µM | – | – | – | –
